Source: ChEMBL document CHEMBL1152706, “Stieglitz rearrangement of N,N-dichloro-beta,beta-disubstituted taurines under mild aqueous conditions” (Bioorg Med Chem Lett, 2009)

Legend:
Type in all cases: physicochemical
Conditions in all cases: buffer
[1] = Chemical stability assessed as half life at pH 7 at 40 degC
[2] = Chemical stability assessed as half life at pH 4 at 40 degC
[3] = Chemical stability assessed as half life at pH 4 at 25 degC

Row | half-life [2] | half-life [3] | SMILES | also measured
1 | 24 h | – | CCC(CC)(CS(=O)(=O)[O-])N(Cl)Cl.[Na+] | half-life [1]: 12 h
2 | 168 h | – | O=S(=O)([O-])CCCCCCN(Cl)Cl.[Na+] | –
3 | – | – | CC(C)(CS(=O)(=O)[O-])N(Cl)Cl.[Na+] | t1/2 [2]: > 2 yr
4 | – | < 24 h | O=S(=O)([O-])CCOCCN(Cl)Cl.[Na+] | –
5 | 48 h | – | O=S(=O)([O-])CCCCCCCN(Cl)Cl.[Na+] | –
6 | 120 h | – | O=S(=O)([O-])CCCCCN(Cl)Cl.[Na+] | half-life [1]: 24 h
7 | – | 36 h | COCC(C)(CS(=O)(=O)[O-])N(Cl)Cl.[Na+] (centres undefined) | –
8 | 24 h | – | CC1(C)CC(C)(C)CC(CS(=O)(=O)[O-])(N(Cl)Cl)C1.[Na+] | –
9 | – | 6 h | O=S(=O)([O-])CCCCN(Cl)Cl.[Na+] | –
10 | – | < 0.167 h | CC(C)C(CS(=O)(=O)[O-])(C(C)C)N(Cl)Cl.[Na+] | –
11 | 12 h | – | CCCC(CCC)(CS(=O)(=O)[O-])N(Cl)Cl.[Na+] | half-life [1]: 48 h
